Test results: the NIST ThermoML archive (doi:10.1016/j.fluid.2011.02.010)

Test: xn = mol fraction of the nth substance listed
Details: 101 kPa, Liquid; for speed of sound: Frequency=2 MHz

CCCCn1cc[n+](C)c1.[Cl-] [1-butyl-3-methylimidazolium chloride] + C[S+](C)[O-]
Details	mass density [kg/m3]	speed of sound [m/s]	viscosity [mPa·s]
298.15 K, x1 = 0.0111	1096.4	1514	2.13
298.15 K, x1 = 0.0341	1096.96	1544	2.62
298.15 K, x1 = 0.0713	1097.81	1582	3.43
298.15 K, x1 = 0.1122	1098.51	1618	4.35
298.15 K, x1 = 0.1731	1098.36	1658	5.83
298.15 K, x1 = 0.2433	1097.41	1694	7.62
298.15 K, x1 = 0.3032	1095.8	1718	9.17
298.15 K, x1 = 0.3705	1093.86	1742	10.99
298.15 K, x1 = 0.4746	1090.52	1778	13.86
298.15 K, x1 = 0.5997	1086.4	1810	17.36
298.15 K, x1 = 0.7115	1083.11	1834	20.5
298.15 K, x1 = 0.843	1079.14	1848	24.28
298.15 K, x1 = 0.9445	1076.25	1856	27.39
298.15 K, x1 = 1	1074.43	1868	29.21
303.15 K, x1 = 0.0111	1093.12	1490	1.93
303.15 K, x1 = 0.0341	1094.05	1522	2.35
303.15 K, x1 = 0.0713	1094.88	1562	3.04
303.15 K, x1 = 0.1122	1095.16	1598	3.86
303.15 K, x1 = 0.1731	1095.51	1638	5.12
303.15 K, x1 = 0.2433	1094.39	1672	6.66
303.15 K, x1 = 0.3032	1092.84	1698	8.04
303.15 K, x1 = 0.3705	1090.91	1718	9.63
303.15 K, x1 = 0.4746	1087.56	1752	12.14
303.15 K, x1 = 0.5997	1083.53	1792	15.22
303.15 K, x1 = 0.7115	1080.09	1820	17.99
303.15 K, x1 = 0.843	1076.19	1844	21.34
303.15 K, x1 = 0.9445	1073.27	1852	24.12
303.15 K, x1 = 1	1071.38	1860	25.72
308.15 K, x1 = 0.0111	1087.12	1478	1.77
308.15 K, x1 = 0.0341	1088.6	1510	2.12
308.15 K, x1 = 0.0713	1089.65	1550	2.68
308.15 K, x1 = 0.1122	1090.4	1586	3.31
308.15 K, x1 = 0.1731	1090.8	1630	4.34
308.15 K, x1 = 0.2433	1089.91	1664	5.53
308.15 K, x1 = 0.3032	1088.61	1690	6.63
308.15 K, x1 = 0.3705	1086.93	1712	7.91
308.15 K, x1 = 0.4746	1083.87	1748	9.96
308.15 K, x1 = 0.5997	1080.1	1786	12.5
308.15 K, x1 = 0.7115	1076.93	1812	14.79
308.15 K, x1 = 0.843	1072.98	1832	17.57
308.15 K, x1 = 0.9445	1070.09	1840	19.84
308.15 K, x1 = 1	1068.32	1848	21.21
318.15 K, x1 = 0.0111	1077.1	1450	1.51
318.15 K, x1 = 0.0341	1078.9	1484	1.82
318.15 K, x1 = 0.0713	1080.54	1520	2.3
318.15 K, x1 = 0.1122	1081.62	1550	2.87
318.15 K, x1 = 0.1731	1082.42	1592	3.76
318.15 K, x1 = 0.2433	1081.92	1634	4.81
318.15 K, x1 = 0.3032	1080.89	1662	5.78
318.15 K, x1 = 0.3705	1079.44	1688	6.93
318.15 K, x1 = 0.4746	1076.76	1720	8.79
318.15 K, x1 = 0.5997	1073.27	1758	11.1
318.15 K, x1 = 0.7115	1070.22	1788	13.18
318.15 K, x1 = 0.843	1066.58	1808	15.7
318.15 K, x1 = 0.9445	1063.76	1814	17.76
318.15 K, x1 = 1	1062.14	1820	18.97
328.15 K, x1 = 0.0111	1067.04	1422	1.17
328.15 K, x1 = 0.0341	1069.24	1454	1.44
328.15 K, x1 = 0.0713	1071.41	1490	1.89
328.15 K, x1 = 0.1122	1072.82	1520	2.37
328.15 K, x1 = 0.1731	1074.01	1564	3.14
328.15 K, x1 = 0.2433	1073.91	1604	4.06
328.15 K, x1 = 0.3032	1073.16	1630	4.89
328.15 K, x1 = 0.3705	1071.9	1658	5.92
328.15 K, x1 = 0.4746	1069.49	1694	7.6
328.15 K, x1 = 0.5997	1066.39	1730	9.68
328.15 K, x1 = 0.7115	1063.48	1760	11.56
328.15 K, x1 = 0.843	1060.06	1788	13.82
328.15 K, x1 = 0.9445	1057.44	1796	15.65
328.15 K, x1 = 1	1055.89	1804	16.74
